# In the METLIN SMRT retention time set (Domingo-Almenara et al. 2019):
# Experiment: gradient 5% acetonitrile 3 min, to 50% in 2 min, to 85% in 15 min, held 3 min, 100 µL/min
# Details: column: Zorbax Extend-C18 2.1 x 50 mm; eluents: water / acetonitrile, 0.1% formic acid
# Summary of the method: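 Using water and acetonitrile that each contained 0.1% formic acid, mixtures of ~100 pure standards were separated at 100 μL/min on a Zorbax Extend-C18 column (2.1 × 50 mm, 1.8 μm). The HPLC fed a quadrupole time-of-flight mass spectrometer working in positive and negative ionization mode, with dead and dwell volumes of 40 μL and 900 μL. Data were acquired over 3 months. Retention time was read from computationally picked adduct peaks after manual inspection of each.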
row,Structure (SMILES),RP-LC retention time
1,Cc1ccn2cc(-c3ccc(NS(=O)(=O)c4ccc(Br)cc4)cc3)nc2n1,689 s
2,COc1ccc2c(c1)C1(CCN(S(=O)(=O)c3ccc(F)c(C)c3)C1)C(=O)N2C (stereo unspecified),973 s
3,Cc1cc(C)cc(N2C(=O)CN(CC(C)C)[C@H]3CS(=O)(=O)C[C@H]32)c1,619 s
4,CC1CCN(C(=O)C2CCCN(C(=O)c3nnc(C(=O)Nc4ccc(F)cc4)s3)C2)CC1 (stereo unspecified),661 s
5,O=C1NC2(CCN(C(=O)Nc3cccc(C(F)(F)F)c3)CC2)N=C1c1ccccc1,902 s
6,O=C(Cn1nc(N2CCSCC2)c2ccccc2c1=O)Nc1ccc(Cl)cc1,979 s
7,CC(C)OC(=O)c1cc2ccsc2n1CC(=O)NCc1ccc(F)cc1,954 s
8,COC(=O)c1nnn(-c2ccc(C(C)C)cc2)c1C(=O)OC,996 s
9,Cc1cccc(-c2noc(C3CCCN3C(=O)c3cccc(Cl)c3)n2)c1 (stereo unspecified),1140 s
10,CCN(CC)S(=O)(=O)c1ccc2c(c1)N(CC(=O)NCCCOC(C)C)C(=O)C1CCCCN21 (stereo unspecified),907 s
11,O=C(NCc1ccc(F)cc1F)c1c(O)c2cccnc2n(-c2ccccc2)c1=O,1200 s
12,CCn1ccc(-c2nc(-c3cccc(-c4csc(C5CC5)n4)c3)no2)n1,1220 s
13,CC(C)c1ccc(NC(=O)CC2COc3ccccc3NC2=O)cc1 (stereo unspecified),872 s
14,CN1c2cc(F)ccc2C(=O)NC12CCN(C(=O)Nc1ccccc1)CC2,695 s
15,Cc1ncc2c(n1)C[C@@H]1CC[C@H]2N1C(=O)Nc1ccccc1F,638 s
16,COCC(=O)N(CC(=O)N1CCc2sccc2C1COc1ccc(C(C)C)cc1)C1CC1 (stereo unspecified),947 s
17,Cc1ccccc1-c1noc(C2CCCN2C(=O)Nc2ccc(F)cc2F)n1 (stereo unspecified),993 s
18,Cc1cc(-c2nc(-c3ccc(F)cc3)no2)c(C)n1CC(=O)NC1CCCC1,1080 s
19,CCc1ccc(-c2noc(Cn3nc(-c4ccc5c(c4)OCO5)ccc3=O)n2)cc1,1200 s
20,CCCn1nnc2cc(-c3noc(C4CC(=O)N(c5ccc(C)cc5)C4)n3)ccc21 (stereo unspecified),964 s

row,Structure (SMILES),RP-LC retention time
1,CN1c2cc(F)ccc2C(=O)NC12CCN(C(=O)Cc1cccc(F)c1)CC2,752 s
2,COc1ccc(-c2cn3c(CC(=O)N4CCc5ccccc5C4)csc3n2)cc1OC,754 s
3,O=C(OCc1cc(-c2cccs2)on1)c1ccc(Cn2ccnc2)cc1,600 s
4,CN(C)c1ccc(/C=C2\C(=O)Nc3ccccc32)cc1,1010 s
5,COc1ccccc1N1CCN(c2cc(SCC(=O)NCc3ccccc3Cl)ncn2)CC1,908 s
6,COc1ccc2c(c1)C=C(C(=O)NC1CCCC1)C=CO2,918 s
7,O=C(c1ccccn1)N1CC(n2cnnc2C2CCCO2)C1 (stereo unspecified),582 s
8,Cn1c(=O)sc2cc(S(=O)(=O)N3CCC(C(=O)NC4CCCCCC4)CC3)ccc21,896 s
9,COc1ccc(-c2nc3cnccn3c2Nc2cccc(C(N)=O)c2)cc1,612 s
10,COc1ccccc1OCC(=O)Nc1ccc2c(c1)C(=O)Nc1cc(Cl)ccc1O2,873 s
11,CCOC(=O)N1CCN(c2cc(C(=O)O)c3cc(NC(=O)c4ccc(OC)cc4)ccc3n2)CC1,630 s
12,Cc1nc(-c2cccc(-c3noc(CN4C(=O)COc5ccc(Cl)cc54)n3)c2)cs1,1180 s
13,O=C(NCc1ccc2c(c1)OCO2)c1cn(-c2cc(N3CCCC3)ncn2)cn1,775 s
14,CC1CN=C2C=C(N3CCN(S(=O)(=O)Cc4cccc(Cl)c4)CC3)N=CN21 (stereo unspecified),627 s
15,Cc1ccc(-n2cc3c(c(C(=O)N4CCN(c5ccccn5)CC4)c2=O)CC(C)(C)CC3=O)cc1,659 s
16,CCOCCCNC(=O)c1ccc(-c2ccc(N3CCCC3)nn2)cc1,558 s
17,OCCNCc1ccc(-c2ccc(Cl)cc2Cl)o1,642 s
18,COc1ccc(Cl)cc1NC(=O)CN1CCN(c2ccccc2F)CC1,709 s
19,Cc1nc(-c2ccc(-c3noc(-c4ccncc4)n3)cc2)cs1,1050 s
20,Cc1ccc(-n2nc(N3CCN(C(=O)Nc4cccc(C)c4)CC3)ccc2=O)cc1,820 s

# More lines, now with the values ahead:
row,RP-LC retention time,Structure (SMILES)
1,612 s,O=C(NCc1cccnc1)c1c2c(nc3ccccc13)C(=O)N(C1CCCCC1)C2
2,688 s,O=C(CCc1c(-c2ccc(Cl)cc2)nc2ccccn12)NCc1ccccc1F
3,770 s,COCc1nncn1C1CCN(S(=O)(=O)c2ccc(Cl)cc2C)CC1
4,894 s,CCOc1ccccc1NC(=O)Cc1csc2nc(-c3ccccc3)cn12
5,840 s,O=C(CSc1nnc(-c2ccccc2)c(-c2ccccc2)n1)Nc1nccs1
6,653 s,COc1ccc(-c2cn3c(CC(=O)Nc4nccs4)csc3n2)cc1OC
7,580 s,Cc1nccn1CCNC(=O)C(=O)Nc1ccc(OC(F)(F)F)cc1
8,608 s,O=C(NCc1cccnc1)C1CCN(Cc2cc3ccccc3n2Cc2cccc(F)c2)CC1
9,729 s,Cc1ccccc1CNC1=NCCNC12CCN(S(=O)(=O)c1ccccc1C)CC2
10,855 s,CCC(=O)N(CC(=O)N1CCc2sccc2C1COc1ccccc1OC)C(C)C (stereo unspecified)
11,917 s,Cc1ccc(S(=O)(=O)N2CCC(CC(=O)NC(C)c3ccccc3)CC2)cc1 (stereo unspecified)
12,626 s,CC(C)n1cnnc1C1CCN(C(=O)Cc2c[nH]c3ccccc23)CC1
13,943 s,CN(CCc1noc(-c2ccccc2)n1)C(=O)Nc1ccccc1Cl
14,654 s,O=C(Nc1ccccc1)NC1CCN(C(=O)N2C[C@H]3C[C@H](C2)[C@H]2CCCC(=O)N2C3)CC1
15,730 s,CCCCNc1nc(-c2ccccc2F)nc2ccccc12
16,787 s,CCC(C)C(NC(=O)c1cc(F)cc(F)c1)C(=O)Nc1nc2ccccc2[nH]1 (stereo unspecified)
17,779 s,Cc1cc(C)cc(Nc2c(-c3ccc(C(=O)O)cc3)nc3cnccn23)c1
18,915 s,CCCn1c(=O)c(-c2ccc(C(=O)NC(C)C)cc2)nc2ccccc21
19,659 s,Cc1ccc(-c2noc(Cn3ccnc3)n2)cc1C
20,783 s,Cc1ccc(N(CN2CCCC2=O)C(=O)c2ccc(C)c(C)c2)cc1
21,1040 s,CCc1ccc(-c2csc(Nc3ccccn3)n2)cc1
22,602 s,CC(C)(C)c1cc(C(N)=O)n[nH]1
23,739 s,Cc1cc2nn(CC(=O)Nc3ccc(F)cc3)c(=O)n2c(N2CCCC2)n1
24,602 s,COc1ccc(C(=O)N2C[C@@H](Oc3cccnc3)C[C@H]2C(=O)NC2CC2)c(OC)n1
25,1290 s,CCc1ccc(S(=O)(=O)N2CCCC2c2nc(-c3ccc(Cl)cc3)no2)cc1 (stereo unspecified)
26,880 s,CCOC(=O)c1cn(Cc2ccccc2F)c2nc(C)ccc2c1=O
